Experimental data as given in patent US8545820B2, “Use of titanium-based materials as bactericides” (Savannah River Nuclear Solutions, LLC, priority 2010, dated 2013).

What was measured:
[1] = system: bacteria in Table 1; assay: Planktonic bacterial growth suppression, statements pooled over the species tested; type: cell-based, oral bacteria
Method: (§1) Set forth in Table 1 are the species of oral bacteria which were evaluated. These species are atiologic agents and periodontal disease, gingivitis, or caries that would lend themselves to treatment with a solid-phase metal titanate compound. […] All bacteria were cultured from frozen stocks expanded from ATCC cultures; the absence of contamination was verified at each thaw via Gram stain. All bacteria were grown over 24 h to mid-log phase before inoculating experimental cultures.
One hundred μL of the initial culture was plated in 96 well plate format number of bacterial cells present in a given volume of culture was determined by correlating OD reading of bacterial culture at 595 nm to the number of cells present. […] Prior to exposing bacteria to metal-titanate compounds, appropriate dilutions of each bacterial species were made so that metal-titanate compounds are consistently exposed to 3.56E9 bacteria for all species tested. […]
For metal ions alone, 5 μL of a concentrated stock solution of the respective metal salt were added to 95 μL of the bacterial cultures (n=8 per condition). […] After 24 h, the cultures were thoroughly mixed prior to reading the OD. […]
The initial and final mean and standard deviation OD readings were plotted as a function of concentration. […]

[2] = system: Actinomyces naeslundii (An); assay: Planktonic bacterial growth suppression (OD at 595 nm, 24 h exposure); type: cell-based
Method: as §1
(§2) One hundred μL of the initial culture was plated in 96 well plate format number of bacterial cells present in a given volume of culture was determined by correlating OD reading of bacterial culture at 595 nm to the number of cells present. […] Prior to exposing bacteria to metal-titanate compounds, appropriate dilutions of each bacterial species were made so that metal-titanate compounds are consistently exposed to 3.56E9 bacteria for all species tested. This strategy assured the same cell to titanate particle ratio, allowed repeatability, and allowed log growth phase throughout the 24 h time when bacteria were exposed to the titanates. A 24 h incubation time with titanates was chosen to maximize the exposure to the titanates without risking a culture deteriorating from overgrowth.
(§3) For metal ions alone, 5 μL of a concentrated stock solution of the respective metal salt were added to 95 μL of the bacterial cultures (n=8 per condition). […] The cultures were mixed to ensure contact between the titanates and the bacteria. MST and APT suspensions were thoroughly mixed prior to addition to ensure accurate transfer of the particles. […] Titanate-bacterial cultures were incubated for 24 h under the conditions appropriate for each type of bacterium. After 24 h, the cultures were thoroughly mixed prior to reading the OD. Control cultures for experiments included cultures of media alone (no titanates or bacteria), titanates in media (no bacteria), and bacteria alone (no titanates). […] All experiments were repeated in triplicate to assure reproducibility.
(§4) The initial and final mean and standard deviation OD readings were plotted as a function of concentration. The titanate only controls were also plotted as a baseline. Cultures were statistically compared (two-sided Student's t-tests, α=0.05) to determine significant effects of the titanates (with or without added metal) on bacterial growth.
(§5) A similar strategy was used to assess the antibacterial action of the metal ions alone, so that the relative efficacy of the titanates alone and titanate metal complexes could be compared to the metal ions alone. The delivery potential of metal ion from the titanate-metal complexes was determined by calculating the total metal mass complexed with the titanates at each titanate particle concentration.

[3] = system: Prevotella intermedia (Pi); assay: as above; type: cell-based; conditions: concentrations ≦1500 μM
Method: as §1, §2, §3, §4, §5

[4] = system: mammalian cells; conditions: metal ion alone; based on previous reports; cited from earlier work
[5] = Aqueous solubility of the metal chloride salt; type: physicochemical

Structure (SMILES): O.O.O.[Cl][Au-]([Cl])([Cl])[Cl].[H+] [Au(III), HAuCl4•3H2O]
- Relative potency among the metal ions alone ([1]; metal ions alone, excepting Pt(II)): most potent
- An growth suppression by metal ion alone ([2]; >10 μM): completely suppressed
- Effect of metal ion alone on Pi [3]: no observable effect
- Inhibitory concentration for mammalian cells [4]: 60 to 115 µM

Structure (SMILES): [Cl][Pd][Cl] [Pd(II), PdCl2]
- An growth suppression by metal ion alone ([2]; >1000 μM): approximately 30%
- Inhibitory concentration for mammalian cells [4]: 100 to 300 µM

Structure (SMILES): [Cl][Pt][Cl] [Pt(II), PtCl2]
- Aqueous solubility of the chloride salt [5]: limited aqueous solubility

Structure (SMILES): [Cl][Pt][Cl] [Pt(IV), PtCl2]
- An growth suppression by metal ion alone ([2]; concentrations ≦750 μM): not suppressed
- Inhibitory concentration for mammalian cells [4]: 25 µM

Structure (SMILES): CC[C@H]1OC(=O)[C@H](C)[C@@H](O[C@H]2C[C@@](C)(OC)[C@@H](O)[C@H](C)O2)[C@H](C)[C@@H](O[C@@H]2O[C@H](C)C[C@H](N(C)C)[C@H]2O)[C@](C)(O)C[C@@H](C)C(=O)[C@H](C)[C@@H](O)[C@]1(C)O [erythromycin]
- Bacteriostatic control (Bac-Em) ([1]; bacteria with erythromycin 100 μg/mL, no titanates): behaved as expected
